Values of other authors as cited in patent US11510960B2, “Biofilm disrupting composition for use on chronic wounds” (Whiteley Corporation Pty Ltd, priority 2016, dated 2022).

Test system: P. aeruginosa biofilm from venous leg ulcers

gentamicin
reduction in concentration in relation to the control biofilm (biofilm 24 hours post-debridement, antibiotic treatment): nine-fold | average log reduction in bacteria after antibiotic treatment (mature (pre-study) biofilm, three patients with non-healing venous leg ulcers): 4 log
